Some results are limits rather than exact numbers.

Series [1] in a line: Maximum absorption wavelength in chloroform (Cary 5000 spectrophotometer). The series is classed as physicochemical. The following applies: wavelength range 400 to 800 nm. The procedure: In addition, the maximum absorption wavelength was obtained by dissolving 50 mg of each compound in 200 mL of chloroform, adding chloroform to 2 mL of this solution so as to be 200 mL, and measuring the absorbance of the solution in a wavelength range of 400 to 800 nm using Cary 5000 UV-Vis-NIR spectrophotometer (manufactured by Agilent Technologies, Inc.).

Series [2] in a line: Solubility in PGMEA at 25° C. (visual check of insoluble matters). Format: physicochemical. The source says:
The evaluation standard is as follows.

In the case of `CC(=O)Nc1ccc(N(c2ccc(C3=C([O-])C(=C4C=CC(=[N+](c5ccc(NC(C)=O)cc5)c5cccc6ccccc56)C=C4O)C3=O)c(O)c2)c2cccc3ccccc23)cc1` [SQ-19], the Maximum absorption wavelength in series [1] came to 670 nm. In series [2], the Solubility result is given as “A (solubility is 20 mg/L or less.)”.
In turn, `CCc1ccc(N(c2ccc(C3=C([O-])C(=C4C=CC(=[N+](c5ccc(CC)cc5)c5cccc6ccccc56)C=C4O)C3=O)c(O)c2)c2cccc3ccccc23)cc1` [SQ-13] registered a Maximum absorption wavelength in series [1] of 675 nm. In addition, the Solubility entry in series [2] is “B (solubility is more than 20 mg/L and 25 mg or less.)”.
`Cc1ccc(N(c2ccc(C3=C([O-])C(=C4C=CC(=[N+](c5ccc(C)cc5C)c5cccc6ccccc56)C=C4O)C3=O)c(O)c2)c2cccc3ccccc23)c(C)c1` [SQ-7] yielded a Maximum absorption wavelength in series [1] of 680 nm. For the same molecule, the Solubility entry in series [2] was “C (solubility is more than 25 mg/L and 30 mg or less.)”.
The molecule `O=C1C(=C2C(O)=CC(=[N+](c3ccccc3)c3cccc4ccccc34)c3ccccc32)C([O-])=C1c1c(O)cc(N(c2ccccc2)c2cccc3ccccc23)c2ccccc12` [SQ-104] had a Maximum absorption wavelength in series [1] of 695 nm. Moreover, the Solubility result in series [2] is listed as “A (solubility is 20 mg/L or less.)”.
`N#Cc1ccc(N(c2ccc(C3=C([O-])C(=C4C=CC(=[N+](c5ccc(C#N)cc5)c5cccc6ccccc56)C=C4O)C3=O)c(O)c2)c2cccc3ccccc23)cc1` [SQ-16] returned a Maximum absorption wavelength in series [1] of 660 nm. The Solubility entry in series [2] is reported as “A (solubility is 20 mg/L or less.)”.
Turning to `CCCCN(CCCC)c1cc(O)c(C2=C([O-])C(=C3C(O)=CC(=[N+](CCCC)CCCC)C=C3O)C2=O)c(O)c1` [SQ-R1, reference compound], in series [1], the Maximum absorption wavelength is 655 nm. In series [2] (organic solvent or mixture, thermodynamic from solid), the solubility (in general, how much of the substance goes into solution per volume) at 15 min is more than 30 µg/mL.
In turn, `O=C1C(=C2C=CC(=[N+](c3ccccc3)c3cc(C(F)(F)F)cc(C(F)(F)F)c3)C=C2O)C([O-])=C1c1ccc(N(c2ccccc2)c2cc(C(F)(F)F)cc(C(F)(F)F)c2)cc1O` [SQ-67] returned a Maximum absorption wavelength in series [1] of 675 nm. Further, the Solubility result in series [2] is “C (solubility is more than 25 mg/L and 30 mg or less.)”.
Molecule `Cc1ccc(N(c2ccc(C3=C([O-])C(=C4C=CC(=[N+](c5ccc(C)cc5)c5cccc6ccccc56)C=C4O)C3=O)c(O)c2)c2cccc3ccccc23)cc1` [SQ-2] returned a Maximum absorption wavelength in series [1] of 675 nm. In addition, the Solubility result in series [2] is “B (solubility is more than 20 mg/L and 25 mg or less.)”.
In the case of `O=C1C(=C2C=CC(=[N+](c3cccc4ccccc34)c3cccc4ccccc34)C=C2O)C([O-])=C1c1ccc(N(c2cccc3ccccc23)c2cccc3ccccc23)cc1O` [SQ-29], in series [1], the Maximum absorption wavelength is listed as 680 nm. Besides, the Solubility result in series [2] is “A (solubility is 20 mg/L or less.)”.
Turning to `CCOc1ccc(N(c2ccc(C3=C([O-])C(=C4C=CC(=[N+](c5ccc(OCC)cc5)c5cccc6ccccc56)C=C4O)C3=O)c(O)c2)c2cccc3ccccc23)cc1` [SQ-15], the Maximum absorption wavelength in series [1] is on record as 680 nm. The Solubility result in series [2] was “B (solubility is more than 20 mg/L and 25 mg or less.)”.
The molecule `O=C1C(=C2C=CC(=[N+](c3ccc(Cl)cc3)c3cccc4ccccc34)C=C2O)C([O-])=C1c1ccc(N(c2ccc(Cl)cc2)c2cccc3ccccc23)cc1O` [SQ-12] had a Maximum absorption wavelength in series [1] of 665 nm. In addition, the Solubility entry in series [2] was “A (solubility is 20 mg/L or less.)”.
As for `O=C1C(=C2C(O)=CC(=[N+](c3ccc(Cl)cc3)c3cccc4ccccc34)C=C2O)C([O-])=C1c1c(O)cc(N(c2ccc(Cl)cc2)c2cccc3ccccc23)cc1O` [SQ-74], the Maximum absorption wavelength in series [1] is 665 nm. Also, the Solubility entry in series [2] is listed as “A (solubility is 20 mg/L or less.)”.
As to `CCOC1=CC(=[N+](c2ccccc2)c2cccc3ccccc23)C=CC1=C1C(=O)C(c2ccc(N(c3ccccc3)c3cccc4ccccc34)cc2OCC)=C1[O-]` [SQ-101], the Maximum absorption wavelength in series [1] is reported as 690 nm. Moreover, the Solubility entry in series [2] is recorded as “A (solubility is 20 mg/L or less.)”.
Consider `O=C1C(=C2C=CC(=[N+](c3ccccc3)c3cccc4ccccc34)C=C2O)C([O-])=C1c1ccc(N(c2ccccc2)c2cccc3ccccc23)cc1O` [SQ-1], for which the Maximum absorption wavelength in series [1] is 670 nm. The Solubility entry in series [2] is given as “A (solubility is 20 mg/L or less.)”.
`CSc1ccc(N(c2ccc(C3=C([O-])C(=C4C=CC(=[N+](c5ccc(SC)cc5)c5cccc6ccccc56)C=C4O)C3=O)c(O)c2)c2cccc3ccccc23)cc1` [SQ-17] yielded a Maximum absorption wavelength in series [1] of 675 nm. Moreover, in series [2], the Solubility entry was “A (solubility is 20 mg/L or less.)”.
As to `O=C1C(=C2C(O)=CC(=[N+](c3cccc4ccccc34)c3cccc4ccccc34)C=C2O)C([O-])=C1c1c(O)cc(N(c2cccc3ccccc23)c2cccc3ccccc23)cc1O` [SQ-77], the Maximum absorption wavelength in series [1] is reported as 670 nm. In addition, the Solubility entry in series [2] is listed as “A (solubility is 20 mg/L or less.)”.
`O=C1C(=C2C=CC(=[N+](c3ccccc3-c3ccccc3)c3ccccc3[N+](=O)[O-])C=C2O)C([O-])=C1c1ccc(N(c2ccccc2-c2ccccc2)c2ccccc2[N+](=O)[O-])cc1O` [SQ-108]: in series [1], the Maximum absorption wavelength was 685 nm. Moreover, in series [2], the Solubility result is “A (solubility is 20 mg/L or less.)”.
Molecule `CC(C)(C)c1ccc(N(c2ccc(C3=C([O-])C(=C4C=CC(=[N+](c5ccc(C(C)(C)C)cc5)c5cccc6ccccc56)C=C4O)C3=O)c(O)c2)c2cccc3ccccc23)cc1` [SQ-14] displayed a Maximum absorption wavelength in series [1] of 670 nm. For the same molecule, the Solubility result in series [2] is “C (solubility is more than 25 mg/L and 30 mg or less.)”.
`O=C1C(=C2C=CC(=[N+](c3ccccc3-c3ccccc3)c3ccccc3-c3ccccc3)C=C2O)C([O-])=C1c1ccc(N(c2ccccc2-c2ccccc2)c2ccccc2-c2ccccc2)cc1O` [SQ-110]: the Maximum absorption wavelength in series [1] stood at 675 nm. In series [2], the Solubility entry is “A (solubility is 20 mg/L or less.)”.
For the molecule `Cc1ccccc1N(c1ccc(C2=C([O-])C(=C3C=CC(=[N+](c4ccccc4C)c4cccc5ccccc45)C=C3O)C2=O)c(O)c1)c1cccc2ccccc12` [SQ-4], in series [1], the Maximum absorption wavelength was 675 nm. For the same molecule, in series [2], the Solubility result is “B (solubility is more than 20 mg/L and 25 mg or less.)”.
`CN(C)c1ccc(N(c2ccc(C3=C([O-])C(=C4C=CC(=[N+](c5ccc(N(C)C)cc5)c5cccc6ccccc56)C=C4O)C3=O)c(O)c2)c2cccc3ccccc23)cc1` [SQ-18] had a Maximum absorption wavelength in series [1] of 685 nm. In addition, in series [2], the Solubility result was “A (solubility is 20 mg/L or less.)”.
Molecule `O=C1C(=C2C(O)=CC(=[N+](c3ccccc3)c3ccc4ccccc4c3)C=C2O)C([O-])=C1c1c(O)cc(N(c2ccccc2)c2ccc3ccccc3c2)cc1O` [SQ-96] yielded a Maximum absorption wavelength in series [1] of 690 nm. Moreover, the Solubility result in series [2] is listed as “A (solubility is 20 mg/L or less.)”.
In the case of `Cc1cccc(N(c2ccc(C3=C([O-])C(=C4C=CC(=[N+](c5cccc(C)c5)c5cccc6ccccc56)C=C4O)C3=O)c(O)c2)c2cccc3ccccc23)c1` [SQ-3], in series [1], the Maximum absorption wavelength is 675 nm. For the same molecule, the Solubility result in series [2] was “B (solubility is more than 20 mg/L and 25 mg or less.)”.
For `O=C1C(=C2C=CC(=[N+](c3ccco3)c3cccc4ccccc34)C=C2O)C([O-])=C1c1ccc(N(c2ccco2)c2cccc3ccccc23)cc1O` [SQ-25], the Maximum absorption wavelength in series [1] amounted to 665 nm. Further, the Solubility entry in series [2] was “B (solubility is more than 20 mg/L and 25 mg or less.)”.

Values taken from patent US20210130617A1, “COLORING COMPOSITION, FILM, COLOR FILTER, METHOD FOR MANUFACTURING COLOR FILTER, SOLID-STATE IMAGING ELEMENT, AND IMAGE DISPLAY DEVICE” (FUJIFILM Corporation, priority 2018, published 2021).
